Laboratory results as given in paper PMC6792352, “Limited Chemical Structural Diversity Found to Modulate Thyroid Hormone Receptor in the Tox21 Chemical Library” (Environmental Health Perspectives, 2019).
Counter-ions that a name gives are not always drawn. Starred links: 1 amine or outer side, 2 acyl side, 3 side chain; linkers in the order of their positions; H or OH if unused. Positions of bridges follow the written chain, without caps; N, C: chain ends. Non-standard residues stand in square brackets, D forms with d. Residues, ends and D or L forms follow the SMILES beside them. *: point of attachment. X1 = NC1=N[C@@H]([C@H](N[*:1])C(=O)[*:2])C[C@H](O)N1; ΔAla(Z-3-ureido) = NC(=O)N/C=C(\N)C(=O)O; β3hOrn = NCCC[C@H](N)CC(=O)*; Dap = NC[C@H](N)C(=O)O

Experiment: in vitro
Settings: rat, gh3-tre-luc cells

Compound | CC50 at 24 h (AC50 (uM) modified / 1000) | other results
CC(C)(C)C1CCC(=O)CC1 [4-tert-Butylcyclohexanone] | > 90 µM | –
C[N+]1(C)[C@@H]2CC(OC(=O)[C@H](CO)c3ccccc3)C[C@H]1[C@@H]1O[C@@H]12 (stereo partly drawn) [Scopolamine methylbromide] | > 50 µM | –
CO[C@@H]1[C@H](OC(=O)NC(=O)CCl)CC[C@]2(CO2)[C@H]1[C@@]1(C)O[C@@H]1CC=C(C)C [o-(Chloroacetylcarbamoyl)fumagillol] | > 30 µM | –
NC(=O)Cn1c(=O)cc(CCN2CCN(c3nccc4sccc34)CC2)c2ccc(F)cc21 [Trelanserin] | 52.8 µM | –
COc1cc(C)ccc1O [2-Methoxy-4-methylphenol] | > 90 µM | –
CNC=Nc1ccc(C)cc1C [N'-(2,4-Dimethylphenyl)-N-methylformamidine] | – | CC50 at 24 h (AC50 (uM) modified / 1000, Tox21_110001=Tox21_301746, viability, 1 nM T3 present, 24 h): > 90 µM
CC[C@H](N)c1ccccc1 [(S)-(-)-1-Amino-1-phenylpropane] | – | CC50 at 24 h (AC50 (uM) modified / 1000, Tox21_110001=Tox21_202829, viability, 1 nM T3 present, 24 h): > 90 µM
COS(=O)(=O)O [Sodium methyl sulfate] | > 90 µM | –
CC1(C)S[C@@H]2[C@H](NC(=O)[C@H](N)c3ccccc3)C(=O)N2[C@H]1C(=O)OCOC(=O)[C@@H]1N2C(=O)C[C@H]2S(=O)(=O)C1(C)C [Sultamicillin tosylate] | > 50 µM | –
C[C@H](CCCC(C)(C)O)[C@H]1CC[C@H]2[C@@H]3CC=C4C[C@@H](O)CC[C@]4(C)[C@H]3CC[C@]12C [25-Hydroxycholesterol] | > 50 µM | –
CCOC(=O)C1=C[C@@H](OC(CC)CC)[C@H](NC(C)=O)[C@@H](N)C1 [Oseltamivir tartrate] | > 50 µM | –
OC[C@@H](O)[C@@H](O)[C@H](O)[C@H](O)CO [D-Mannitol] | > 90 µM | –
CCC1(c2ccc(N)cc2)CCC(=O)NC1=O (stereo not drawn) [Aminoglutethimide] | > 50 µM | –
CC1CC[C@@H]2C[C@H]1C2(C)C (stereo partly drawn) [Pinane] | > 90 µM | –
CC[N+]1(C)CCCC(OC(=O)C(O)(c2ccccc2)c2ccccc2)C1 (stereo not drawn) [Pipenzolate bromide] | > 50 µM | –
COC(=O)c1ccccc1S(=O)(=O)NC(=O)N(C)c1nc(C)nc(OC)n1 [Tribenuron-methyl] | > 100 µM | –
Clc1cccc(Cl)c1Cl [1,2,3-Trichlorobenzene] | > 90 µM | –
CCCCC[C@@H](O)[C@H]1C(=O)O[C@H](C)[C@@H](O)/C=C/C=C/C=C/C=C/C=C(\C)[C@@H](O)[C@H](O)[C@H](O)C[C@H](O)C[C@H](O)C[C@H](O)C[C@H](O)C[C@@H]1O [Pentamycin] | > 50 µM | –
C=C[C@H]1C[N@@]2CC[C@H]1C[C@@H]2[C@@H](O)c1ccnc2ccc(OC)cc12 [Quinidine] | 85.2 µM | –
C=C(C)C#N [Methacrylonitrile] | – | CC50 at 24 h (AC50 (uM) modified / 1000, Tox21_110001=Tox21_201354, viability, 1 nM T3 present, 24 h): > 100 µM; CC50 at 24 h (AC50 (uM) modified / 1000, Tox21_110001=Tox21_303172, viability, 1 nM T3 present, 24 h): > 90 µM
Nc1ccc(S(=O)(=O)Nc2ncccn2)cc1 [Sulfadiazine] | > 20 µM | –

Compound | CC50 at 24 h (AC50 (uM) modified / 1000) | other results
O=C(c1ccc(O)c(O)c1)c1ccc(O)cc1O [2,3',4,4'-Tetrahydroxybenzophenone] | 49.5 µM | –
CCNc1nc(NCC)nc(SC)n1 [Simetryn] | – | CC50 at 24 h (AC50 (uM) modified / 1000, Tox21_110001=Tox21_300702, viability, 1 nM T3 present, 24 h): > 90 µM
CCC(=O)c1ccc2c(c1)N(CCCN(C)C)c1ccccc1S2 [Propionylpromazine hydrochloride] | 6.21 µM | –
O=C(c1ccccc1)c1cccc(O)c1 [3-Hydroxybenzophenone] | > 90 µM | –
COc1ccc2c(C(=O)c3ccc(Cl)cc3)c(C)n(CC(=O)O)c2c1 [Clometacine] | – | CC50 at 24 h (AC50 (uM) modified / 1000, Tox21_110001=Tox21_113309, viability, 1 nM T3 present, 24 h): > 50 µM
O=C1CCCCC1 [Cyclohexanone] | > 100 µM | –
CCCCCCCCCC [Decane] | > 90 µM | –
OCc1cc(C(O)CNCCCCCCOCCCCc2ccccc2)ccc1O (stereo not drawn) [Salmeterol] | 10.6 µM | –
Cc1ccc(/C=N/n2c(-c3ccccc3)csc2=S)cc1 [Fezatione] | > 50 µM | –
NCCC[C@H](N)CC(=O)N[C@H]1CNC(=O)[C@H]([C@H]2C[C@H](O)NC(N)=N2)NC(=O)/C(=C/NC(N)=O)NC(=O)[C@H](CO)NC(=O)[C@H](CO)NC1=O [Viomycin sulfate] (β3hOrn-[Dap]SS[ΔAla(Z-3-ureido)][X1]; lactam 1-C) | > 50 µM | –
O=C1C(Cl)C(CCl)CN1c1cccc(C(F)(F)F)c1 (stereo not drawn) [Flurochloridone] | > 90 µM | –
CC(C)CCCCCCN [Isononanamine] | > 90 µM | –
Cc1cc(O)c(C(=O)N[C@@H](C(=O)N[C@@H]2C(=O)N3C(C(=O)O)=C(CSc4nnnn4C)CS[C@H]23)c2ccc(O)cc2)cn1 [Cefpiramide acid] | > 50 µM | –
CO[C@]12CC[C@@]3(C[C@@H]1[C@](C)(O)C(C)(C)C)[C@H]1Cc4ccc(O)c5c4[C@@]3(CCN1CC1CC1)[C@H]2O5 [Buprenorphine hydrochloride] | 23.1 µM | –
CNC(=O)ON=C(C)C(C)S(C)(=O)=O (stereo not drawn) [Butoxycarboxim] | > 900 µM | –
Cc1ccc(C2(O)CCN(CCCC(=O)c3ccc(F)cc3)CC2)cc1 [Moperone] | 30.1 µM | –
O=[N+]([O-])c1ccc(CCl)cc1 [4-Nitrobenzyl chloride] | – | CC50 at 24 h (AC50 (uM) modified / 1000, Tox21_110001=Tox21_200572, viability, 1 nM T3 present, 24 h): > 90 µM
CCCCCCCCCCCCCCCCCl [1-Chlorohexadecane] | > 20 µM | –
CCOc1ccc(C(=O)OCCN(CC)CC)cc1 [Parethoxycaine] | > 50 µM | –
O=C(/C=C/c1ccc(O)c(O)c1)O[C@@H](C(=O)O)[C@@H](OC(=O)/C=C/c1ccc(O)c(O)c1)C(=O)O [L-Cichoric acid] | > 90 µM | –
O=[N+]([O-])c1cc(I)c(O)c(I)c1 [2,6-Diiodo-4-nitrophenol] | 24.5 µM | –

Compound | CC50 at 24 h (AC50 (uM) modified / 1000) | other results
O=C(O)CN1C(=O)c2cccc3cccc(c23)C1=O [Alrestatin] | > 50 µM | –
CC(C)(C)NC(=O)[C@H]1CC[C@H]2[C@@H]3CC=C4C=C(C(=O)O)CC[C@]4(C)[C@H]3CC[C@]12C [Epristeride] | > 50 µM | –
CCC(CO)CO [2-Ethylpropane-1,3-diol] | > 90 µM | –
COc1ccc2[nH]cc(CCNC(C)=O)c2c1 [Melatonin] | > 90 µM | –
CCCCNCC [N-Ethyl-N-butylamine] | > 90 µM | –
CCCCNC(=S)NCCCC [N,N'-Dibutylthiourea] | > 90 µM | –
CCCCCC(C=O)=Cc1ccccc1 [Pentylcinnamaldehyde] | > 90 µM | –
CC(O)Cn1cnc2c1c(=O)n(C)c(=O)n2C (stereo not drawn) [Proxyphylline] | > 20 µM | –
C1=C\CC/C=C\CC/1 [1,5-Cyclooctadiene] | > 100 µM | –
CC[C@@H](C)[C@@H](N)C(=O)O [D-Isoleucine] | > 50 µM | –
O=[N+]([O-])c1cccc2ccccc12 [1-Nitronaphthalene] | > 90 µM | –
O=C(/C=C/c1ccccc1)OC/C=C/c1ccccc1 [3-Phenyl-2-propen-1-yl 3-phenylacrylate] | > 90 µM | –
COCN(COC)c1nc(N(COC)COC)nc(N(COC)COC)n1 [Hexa(methoxymethyl)melamine] | > 90 µM | –
C#CCOC(=O)/C=C(C)/C=C/CC(C)CCCC(C)C (stereo not drawn) [Kinoprene] | – | CC50 at 24 h (AC50 (uM) modified / 1000, Tox21_110001=Tox21_302008, viability, 1 nM T3 present, 24 h): > 90 µM
COC(=O)[C@@H]1[C@H]2CC[C@@H](C[C@H]1OC(=O)c1ccccc1)N2C [Allococaine hydrochloride] | > 50 µM | –
CC(=O)NC(Cc1ccccc1)C(=O)O (stereo not drawn) [Afalanine] | > 50 µM | –
Cc1ccc(C(C)c2ccc(C)c(C)c2)cc1C [1,1-Bis(3,4-dimethylphenyl)ethane] | > 90 µM | –
Nc1ccccc1-c1ccccc1 [2-Biphenylamine] | > 90 µM | –
Oc1cc(Cl)cc(Cl)c1 [3,5-Dichlorophenol] | > 90 µM | –
C/C=C(\C)C(=O)OCCc1ccccc1 [Phenethyl tiglate] | > 90 µM | –
